From publication PMC8395317, “The Simple Method of Preparation of Highly Carboxylated Bacterial Cellulose with Ni- and Mg-Ferrite-Based Versatile Magnetic Carrier for Enzyme Immobilization” (International Journal of Molecular Sciences, 2021)

Tested on: T1, phospholipase A (PLA, Lecitase Ultra)
T1 construct: gene LIP; one fused chain: T. lanuginosus lipase N-terminal part (1-284) + F. oxysporum phospholipase A1 C-terminal part (285-339); commercial Lecitase Ultra (Sigma-Aldrich), used without further purification; free form
Assay: p-nitrophenol release, absorbance […] nm, Michaelis-Menten nonlinear fit
Format: biochemical, Thermomyces lanuginosus
Settings: free enzyme; 0.1 to 1.2 mmol/L pNPB, 50 mmol/L phosphate pH 7.0, 0.004% Triton X-100, 30 °C

Km: 490 ± 100 µM
SMILES: CCCC(=O)Oc1ccc([N+](=O)[O-])cc1 [p-nitrophenyl-butyrate]
